The subject of one data set is Hela S3 cultured cells. Put plainly: Effects upon Hela S3 cultured cells. Particulars: Homo sapiens, HeLa S3, 72 h. The class given is cell-based. As for the experimental part:
Table 3 indicates the effects of typical Compounds (I) against Hela S3 culture cells. In this table, IC50 denotes the concentration of the test compound capable of reducing the number of cells to 50% the number of untreated cells.
Cultured cells of Hela S3 were added to a MEM medium containing 10% (V/V) of bovine fetal serum and […] of glutamine to obtain a cell suspension of 3×10^4 cells/ml. The cell suspension was poured into each well (1 ml/well) of a 24 well-multiplate for culturing at 37° C. in an incubator containing carbon dioxide (5%) and air (95%). After 24 hours, samples were dissolved or suspended in PBS, ethanol or dimethylsulfoxide and added to the medium at different concentrations, followed by culturing at 37° C. for 72 hours in the same incubator. An aspirator was used to collect the medium from each well. The surface of each medium was washed by adding PBS (1 ml) gently, and then PBS was sucked out. PBS containing trypsin (0.05%) and EDTA (0.02%) was poured into each well. After pipetting, the number of cells in each suspension was counted by the use of a microcell counter (commercial product of Toa Iyo Denshi K.K., Japan). By reference to a curve showing the concentration vs. the number of cells, the IC50 (concentration of sample capable of reducing the number of cells to 50% of the number of control untreated cells) was measured.

The nature of data set [1]: in vivo. The following applies: mouse, ip, single abdominal administration, ddy mice, 14 days, Behrens-Korber's method. The text has this:
(§1) In this table, C.I. denotes chemotherapeutic index, calculated as C.I.=(LD50)/(ED50), wherein LD50 denotes the value of acute toxicity, and ED50 denotes the dose of a sample which is capable of reducing the volume of Sarcoma 180 solid tumour to 50% of the corresponding volume of the solid tumour of untreated group.
(§2) The test compound was abdominally administered once to ddy mice, each group consisting of 5 animals.

The next data set relates to Sarcoma 180 solid tumour. The class given is in vivo, ddy mouse. Particulars: C.I.=(LD50)/(ED50), ED50 = dose at T/C=0.5, i.v. (tail vein), 7 days.
Text: as §1, §2
(§3) 5×10^6 cells of Sarcoma 180 solid tumour were abdominally implanted into a ddy mouse. 7 days after this, the cells were collected from the ascites fluid. The cells were washed once with physiological saline under sterile conditions and suspended in physiological saline to obtain a cell suspension containing 5×10^7 cells/ml of which 0.1 ml was implanted into a ddy male mouse (body weight 20±2 g) under the skin of the right armpit. The test compound was dissolved in physiological saline or the same solution containing Tween 80. 24 hours after implantation of the tumour cells, 0.1-0.2 ml of the solution containing the test compound was administered to the tail vein of each animal in the test group consisting of 5 animals. 7 days after the implantation, the major axis (a) and minor axis (b) of the tumour were measured to calculate the volume of the tumour as "a"×"b^2 "/2. The antitumour effect was indicated by T/C which is the ratio of the tumour volume in the test animals to the corresponding volume of the control (untreated) animals.
(§4) T/C ratios and the dose were respectively plotted on the ordinate using an arithmetic scale and on the abscissa using a logarithmic scale, the relationship between the dosage and the T/C ratio being converted to a straight line by the least squares method. From the straight tropic line thus-obtained, the dosage corresponding to a T/C=0.5 viz. ED50 was determined.

Data set [2] can be described thus: in vivo. The arrangement: species or system mice (ddy strain). The following applies: mouse, ip, ratio of dose reducing peripheral leucocytes to 4000 (per mm^3; i.p., 4 days) to ED50 (Sarcoma 180), read-out: (WBC4000)/(ED50).
Text: as §1, §3, §4
Sarcoma 180 solid tumour cells (5×10^6) were subcutaneously implanted under the skin of the right armpit of each mouse (body weight 20±2 g) of a group consisting of 5 male mice (ddy strain). 24 hours after this, a test compound was intraperitoneally administered to each animal. 4 days later, blood (0.02 ml) was collected from the suborbital plexus vein of each tumour-carrying animal. The collected sample of blood was dispersed in 9.98 ml of Cellkit Seven solution. One drop of saponin solution was added to the sample to dissolve erythrocytes and then a microcell counter was used to measure the number of leucocytes. On graph paper, the number of leucocytes was plotted on the ordinate using an arithmetic scale, and the dosage was plotted on the abscissa using a logarithmic scale to show the relationship of the dosage to the number of peripheral leucocytes, from which the value of WBC4000 viz. a value capable of giving 4000 peripheral leucocytes per mm^3 (about half of the corresponding value in normal mice) was obtained.

Values after ≈ are worked out from the molar mass of the structure shown. Some results are limits rather than exact numbers.

The IC50 is the point on the concentration scale where inhibition reaches its midpoint. A higher IC50 goes with lower potency. As a reminder, the LD50 is the dose expected to kill half of the subjects tested.

On to `CO[C@@]12[C@H](COC(N)=O)c3c(O)c(N=NC4=NCCN4)c(C)c(O)c3N1C[C@@H]1N[C@@H]12` [Example 23, [1aS-(1aα,8β, 8aα,8bα)]-8-{[(aminocarbonyl)oxy]methyl}-4,7-dihydroxy-1,1a,2,8,8a,8b-hexahydro-6[(2"- imidazolinyl)azo]-8a-methoxy-5-methyl-azirino[2',3':3,4]pyrrolo[1,2-a]indol], for which half-maximal inhibition in the data set on Hela S3 cultured cells (IC50) required 0.162 µg/mL (≈ 0.388 µM). Also, the LD50 at 336 h in “in vivo [1]” was > 100 mg/kg. For the same compound, in the data set with Sarcoma 180 solid tumour, the “C.I. (chemotherapeutic index)” value is recorded as > 0.6. For the same compound, the selectivity ratio in the data set “in vivo [2]” came out at 0.5.

`COc1c(C)c(N=O)c(O)c2c1N1C[C@@H]3N[C@@H]3[C@]1(OC)[C@@H]2COC(N)=O` [Example 6] displayed an IC50 in the data set on Hela S3 cultured cells of 0.005 µg/mL (≈ 0.0137 µM). For the same compound, in “in vivo [1]”, the 50% lethal dose (LD50) at 336 h was 75 mg/kg. Moreover, the “C.I. (chemotherapeutic index)” value in the data set with Sarcoma 180 solid tumour is on record as 5.6. Besides, the selectivity ratio in the data set “in vivo [2]” was 2.7.

Regarding `CO[C@@]12[C@H](COC(N)=O)c3c(O)c(N=O)c(C)c(O)c3N1C[C@@H]1N[C@@H]12` [Example 1, [1aS-(1aα,8β,8aα,8bα)]-8-{[(aminocarbonyl)oxy]methyl}-4,7-dihydroxy-1,1a,2,8,8a,8b-hexahydro-8a-methoxy-5-methyl-6-nitroso-azirino[2',3':3,4]pyrrolo[1,2-a]indole], in the data set with Hela S3 cultured cells, it took 1.14 µg/mL (≈ 3.24 µM) to reach half-maximal inhibition (IC50). This compound returned an LD50 at 336 h in “in vivo [1]” of 53 mg/kg. Also, the “C.I. (chemotherapeutic index)” value in the data set on Sarcoma 180 solid tumour is reported as 2.0. The selectivity ratio in “in vivo [2]” stood at 0.7.

The record behind these values is patent US4791113A, “Mitomycin derivatives as antileukemia agents” (Kyowa Hakko Kogyo Kabushiki Kaisha, priority 1986, dated 1988).
